According to article PMC5433425 (PeerJ, 2017):
Converted amounts (≈) assume the structure as drawn. Where two headings read alike, the source gives them in different places.

Key:
[1] = test system: E. coli AG100A; experiment: microbe, parasite or virus in culture; type: cell-based, Escherichia coli; details: Escherichia coli, AG100A, read-out: MIC without efflux inhibitor
Experimental: The minimum inhibitory concentrations (MICs) were determined using the broth microdilution method according to the CLSI guidelines ([Clinical and Laboratory Standards Institute, 2014]). […] Two-fold serial dilutions of the compounds were made to achieve the following concentrations: 320 µM–40 µM. The MICs were determined as the lowest concentration at which no visible growth was observed after 18 h of incubation at 37 °C. The assays were performed in triplicate and the MIC value was given as result of at least two concordant values.

[2] = test system: E. coli AG100tet; experiment: microbe, parasite or virus in culture; type: cell-based, Escherichia coli; details: Escherichia coli, AG100TET, read-out: MIC without efflux inhibitor, AG100tet; inhibitor 0 μM
Experimental: (§1) The assays were performed in triplicate and the MIC value was given as result of at least two concordant values.

[3] = test system: E. coli AG100A (AcrAB pump-deficient); experiment: MIC, broth microdilution; type: cell-based, Escherichia coli; details: Escherichia coli
[4] = test system: E. coli AG100tet (AcrAB overexpressing); experiment: MIC, broth microdilution; type: cell-based, Escherichia coli; details: Escherichia coli
[5] = test system: E. coli AG100; experiment: Membrane potential assay (BacLight, DiOC2(3)); details: positive control 156 µM (half MIC)
[6] = test system: E. coli K-12 AG100 (wild-type); experiment: MIC, broth microdilution; type: cell-based; details: Escherichia coli
[7] = test system: E. coli AG100; experiment: Checkerboard synergy assay (MIC of antibiotics/EtBr with efflux inhibitor); type: cell-based, Escherichia coli; details: Escherichia coli
Experimental: as §1

[8] = test system: E. coli AG100; experiment: EtBr accumulation by real-time fluorometry
[9] = test system: E. coli AG100A; details: AG100A
[10] = test system: E. coli AG100tet; experiment: EtBr accumulation by real-time fluorometry; details: AG100tet

CN(C)[C@@H]1C(O)=C(C(N)=O)C(=O)[C@@]2(O)C(O)=C3C(=O)c4c(O)cccc4[C@@](C)(O)[C@H]3C[C@@H]12 [TET, tetracycline]
MIC [1]: 0.5 µg/mL (≈ 1.13 µM)
MIC [2]: 64 µg/mL (≈ 144 µM)
MIC [3]: 0.5 µg/mL (≈ 1.13 µM)
MIC [4]: 64 µg/mL (≈ 144 µM)

N#CC(C#N)=NNc1cccc(Cl)c1 [CCCP, carbonyl cyanide-m-chlorophenylhydrazone]
percentage of depolarized cells (membrane potential collapse) [5]: over 95%

Cc1onc(-c2ccccc2)c1C(=O)N[C@@H]1C(=O)N2[C@@H]1SC(C)(C)[C@@H]2C(=O)O [OXA, oxacillin]
MIC [1]: 2 µg/mL (≈ 4.98 µM)
MIC [2]: > 2050 µg/mL
MIC [3]: 2 µg/mL (≈ 4.98 µM)
MIC [4]: > 2050 µg/mL
MIC ([6]; E. coli AG100 wild-type, read-out: MIC): 512 µg/mL (≈ 1280 µM)
MIC ([7]; AG100, AG100, inhibitor 0 μM, read-out: MIC without efflux inhibitor): 512 µg/mL

CC[n+]1c(-c2ccccc2)c2cc(N)ccc2c2ccc(N)cc21 [EtBr, ethidium bromide]
equilibrium concentration (influx equals efflux) ([8]; AG100): 1 µg/mL
EtBr fluorescence ([8]; EtBr 0.5 µg/ml, cycle 1): 3.237
EtBr fluorescence ([8]; EtBr 0.5 µg/ml, cycle 7): 3.883
EtBr fluorescence ([8]; EtBr 0.5 µg/ml, cycle 8): 4.039
EtBr fluorescence ([8]; EtBr 0.5 µg/ml, cycle 9): 4.222
EtBr fluorescence ([8]; EtBr 0.5 µg/ml, cycle 10): 4.226
EtBr fluorescence ([8]; EtBr 0.5 µg/ml, cycle 11): 4.3568
EtBr fluorescence ([8]; EtBr 0.5 µg/ml, cycle 12): 4.419
EtBr fluorescence ([8]; EtBr 0.5 µg/ml, cycle 13): 4.6831
EtBr fluorescence ([8]; EtBr 0.5 µg/ml, cycle 14): 4.514
EtBr fluorescence ([8]; EtBr 0.5 µg/ml, cycle 15): 4.795
EtBr fluorescence ([8]; EtBr 0.5 µg/ml, cycle 16): 4.926
EtBr fluorescence ([8]; EtBr 0.5 µg/ml, cycle 17): 4.878
EtBr fluorescence ([8]; EtBr 0.5 µg/ml, cycle 18): 4.912
EtBr fluorescence ([8]; EtBr 0.5 µg/ml, cycle 19): 5.122
EtBr fluorescence ([8]; EtBr 0.5 µg/ml, cycle 20): 5.073
EtBr fluorescence ([8]; EtBr 0.5 µg/ml, cycle 21): 5.194
EtBr fluorescence ([8]; EtBr 0.5 µg/ml, cycle 22): 5.233
EtBr fluorescence ([8]; EtBr 0.5 µg/ml, cycle 23): 5.309
EtBr fluorescence ([8]; EtBr 0.5 µg/ml, cycle 24): 5.461
EtBr fluorescence ([8]; EtBr 0.5 µg/ml, cycle 25): 5.593
EtBr fluorescence ([8]; EtBr 0.5 µg/ml, cycle 26): 5.584
EtBr fluorescence ([8]; EtBr 0.5 µg/ml, cycle 27): 5.69
EtBr fluorescence ([8]; EtBr 0.5 µg/ml, cycle 28): 5.64
EtBr fluorescence ([8]; EtBr 0.5 µg/ml, cycle 29): 5.6965
EtBr fluorescence ([8]; EtBr 0.5 µg/ml, cycle 30): 5.739
EtBr fluorescence ([8]; EtBr 1 µg/ml, cycle 1): 4.697
EtBr fluorescence ([8]; EtBr 1 µg/ml, cycle 2): 4.852
EtBr fluorescence ([8]; EtBr 1 µg/ml, cycle 3): 5.005
EtBr fluorescence ([8]; EtBr 1 µg/ml, cycle 4): 5.143
EtBr fluorescence ([8]; EtBr 1 µg/ml, cycle 5): 5.505
EtBr fluorescence ([8]; EtBr 1 µg/ml, cycle 6): 5.767
EtBr fluorescence ([8]; EtBr 1 µg/ml, cycle 7): 5.841
EtBr fluorescence ([8]; EtBr 1 µg/ml, cycle 8): 6.0562
EtBr fluorescence ([8]; EtBr 1 µg/ml, cycle 9): 6.088
EtBr fluorescence ([8]; EtBr 1 µg/ml, cycle 10): 6.339
EtBr fluorescence ([8]; EtBr 1 µg/ml, cycle 11): 6.446
EtBr fluorescence ([8]; EtBr 1 µg/ml, cycle 12): 6.666
EtBr fluorescence ([8]; EtBr 1 µg/ml, cycle 13): 6.748
EtBr fluorescence ([8]; EtBr 1 µg/ml, cycle 14): 6.978
EtBr fluorescence ([8]; EtBr 1 µg/ml, cycle 15): 7.028
EtBr fluorescence ([8]; EtBr 1 µg/ml, cycle 16): 7.227
EtBr fluorescence ([8]; EtBr 1 µg/ml, cycle 17): 7.381
EtBr fluorescence ([8]; EtBr 1 µg/ml, cycle 18): 7.326
EtBr fluorescence ([8]; EtBr 1 µg/ml, cycle 19): 7.434
EtBr fluorescence ([8]; EtBr 1 µg/ml, cycle 20): 7.666
EtBr fluorescence ([8]; EtBr 1 µg/ml, cycle 21): 7.737
EtBr fluorescence ([8]; EtBr 1 µg/ml, cycle 22): 7.695
EtBr fluorescence ([8]; EtBr 1 µg/ml, cycle 23): 7.798
EtBr fluorescence ([8]; EtBr 1 µg/ml, cycle 24): 7.86
EtBr fluorescence ([8]; EtBr 1 µg/ml, cycle 25): 7.955
EtBr fluorescence ([8]; EtBr 1 µg/ml, cycle 26): 7.794
EtBr fluorescence ([8]; EtBr 1 µg/ml, cycle 27): 7.948
EtBr fluorescence ([8]; EtBr 1 µg/ml, cycle 28): 8.04
EtBr fluorescence ([8]; EtBr 1 µg/ml, cycle 29): 8.111
EtBr fluorescence ([8]; EtBr 1 µg/ml, cycle 30): 8.205
EtBr fluorescence ([8]; EtBr 2 µg/ml, cycle 1): 9.029
EtBr fluorescence ([8]; EtBr 2 µg/ml, cycle 2): 9.296
EtBr fluorescence ([8]; EtBr 2 µg/ml, cycle 3): 9.71
EtBr fluorescence ([8]; EtBr 2 µg/ml, cycle 4): 9.991
EtBr fluorescence ([8]; EtBr 2 µg/ml, cycle 5): 10.2954
EtBr fluorescence ([8]; EtBr 2 µg/ml, cycle 12): 12.653
EtBr fluorescence ([8]; EtBr 2 µg/ml, cycle 13): 13.0282
EtBr fluorescence ([8]; EtBr 2 µg/ml, cycle 14): 13.3381
EtBr fluorescence ([8]; EtBr 2 µg/ml, cycle 15): 13.5191
EtBr fluorescence ([8]; EtBr 2 µg/ml, cycle 16): 13.6733
EtBr fluorescence ([8]; EtBr 2 µg/ml, cycle 17): 14.0513
EtBr fluorescence ([8]; EtBr 2 µg/ml, cycle 18): 14.1241
EtBr fluorescence ([8]; EtBr 2 µg/ml, cycle 19): 14.4449
EtBr fluorescence ([8]; EtBr 2 µg/ml, cycle 20): 14.643
EtBr fluorescence ([8]; EtBr 2 µg/ml, cycle 21): 14.9287
EtBr fluorescence ([8]; EtBr 2 µg/ml, cycle 22): 15.1966
EtBr fluorescence ([8]; EtBr 2 µg/ml, cycle 23): 15.196
EtBr fluorescence ([8]; EtBr 2 µg/ml, cycle 24): 15.3241
EtBr fluorescence ([8]; EtBr 2 µg/ml, cycle 25): 15.6489
EtBr fluorescence ([8]; EtBr 2 µg/ml, cycle 26): 15.801
EtBr fluorescence ([8]; EtBr 2 µg/ml, cycle 27): 15.8722
EtBr fluorescence ([8]; EtBr 2 µg/ml, cycle 28): 16.0341
EtBr fluorescence ([8]; EtBr 2 µg/ml, cycle 29): 16.3924
EtBr fluorescence ([8]; EtBr 2 µg/ml, cycle 30): 16.548
MIC [1]: 3.12 µg/mL
MIC [2]: 512 µg/mL
MIC [3]: 3.12 µg/mL
equilibrium concentration (influx equals efflux) [9]: 0.25 µg/mL
MIC [4]: 512 µg/mL
equilibrium concentration (influx equals efflux) [10]: 2 µg/mL
MIC [6]: 200 µg/mL
MIC ([7]; AG100, read-out: MIC without efflux inhibitor): 200 µg/mL
